The values below come from patent publication US12391698B2, “Substituted piperidines and piperazines and methods for the treatment of CNS disorders” (SUVEN LIFE SCIENCES LIMITED, priority 2022, dated 2025).

Structures can show the parent of a compound that is named as a salt. Where two headings read alike, the source gives them in different places.

The target in data set [1] is T1, hD2S (cloned human dopamine D2S receptor) (Homo sapiens, UniProt P14416).
T1 construct: expressed in transfected cells; host or cells: CHO-K1
T1 sequence (P14416 1-414 isoform P14416-2): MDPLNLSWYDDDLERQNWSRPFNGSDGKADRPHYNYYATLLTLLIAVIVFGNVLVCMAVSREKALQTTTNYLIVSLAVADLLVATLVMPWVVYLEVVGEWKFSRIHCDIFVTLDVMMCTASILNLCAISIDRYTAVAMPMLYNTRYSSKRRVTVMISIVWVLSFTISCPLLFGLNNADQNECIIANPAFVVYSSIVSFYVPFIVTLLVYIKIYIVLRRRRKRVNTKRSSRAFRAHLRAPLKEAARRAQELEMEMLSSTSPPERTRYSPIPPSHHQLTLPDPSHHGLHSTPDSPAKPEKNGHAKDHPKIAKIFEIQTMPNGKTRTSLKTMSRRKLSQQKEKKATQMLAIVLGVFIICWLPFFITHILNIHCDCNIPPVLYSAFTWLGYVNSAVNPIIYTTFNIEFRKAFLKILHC
The data set is described as follows: Determination of Ki at D2S receptor (radioligand binding, [3H]-Raclopride). The settings on record: CHO-K1 recombinant cells; [3H]-Raclopride 4 nM; read-out: Ki hD2S. How it is done: (§1) Compounds were tested according to the following procedure.
• Receptor source: Recombinant mammalian cells (CHO-K1) • Radioligand: [^3H]-Raclopride (80.8 Ci/mmol) • Final ligand concentration: 4 nM • Non-specific determinant: 0.1 mM Haloperidol • Reference compound: Haloperidol • Positive control: Haloperidol Incubation Conditions:
Reactions were carried out in buffer with pH 7.4 containing 50 mM Tris-HCl, 120 mM NaCl, 5 mM KCl, 5 mM MgCl2, 1 mM EDTA for 2 h at r.t. The reaction was terminated by rapid vacuum filtration onto the glass fiber filters. Radioactivity trapped onto the filters was determined and compared to the control values in order to ascertain any interactions of the test compound(s) with cloned human dopamine […] receptor binding site.

The target of data set [2] is T2, cloned human 5-HT2A receptor (Homo sapiens, UniProt P28223).
T2 construct: expressed in transfected cells; host or cells: CHO-K1
T2 sequence (P28223 whole entry): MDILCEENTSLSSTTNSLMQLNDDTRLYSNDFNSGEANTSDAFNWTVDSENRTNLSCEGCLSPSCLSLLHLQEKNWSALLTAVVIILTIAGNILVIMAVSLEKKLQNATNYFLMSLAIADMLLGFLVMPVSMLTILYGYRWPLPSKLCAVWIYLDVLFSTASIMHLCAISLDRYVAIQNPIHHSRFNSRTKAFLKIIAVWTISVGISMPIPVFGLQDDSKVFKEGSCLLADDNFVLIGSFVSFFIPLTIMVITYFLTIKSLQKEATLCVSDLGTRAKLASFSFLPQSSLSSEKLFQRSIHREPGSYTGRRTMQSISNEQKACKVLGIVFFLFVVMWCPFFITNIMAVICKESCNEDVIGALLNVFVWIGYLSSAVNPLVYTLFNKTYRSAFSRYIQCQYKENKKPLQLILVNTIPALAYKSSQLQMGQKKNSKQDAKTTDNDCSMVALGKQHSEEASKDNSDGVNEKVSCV
Briefly: Determination of Ki at 5-HT2A receptor (radioligand binding, [3H]-Ketanserine). The conditions noted are these: CHO-K1 recombinant cells; [3H]-Ketanserine 1.25 nM; read-out: Ki h5-HT2A. How it is done:
as §1
• Receptor source: Recombinant mammalian cells (CHO-K1) • Radioligand: [^3H]-Ketanserine (41.9 Ci/mmol) • Final ligand concentration: 1.25 nM • Non-specific determinant: 0.1 mM 1-Napthyl piperazine (1-NP) • Reference compound: 1-Napthyl piperazine (1-NP) • Positive control: 1-Napthyl piperazine (1-NP) Incubation Conditions:
Reactions were carried out in buffer with pH 7.4 containing 50 mM Tris-HCl, 4 mM CaCl2), 0.1% Ascorbic acid for 1 h at r.t. The reaction was terminated by rapid vacuum filtration onto the glass fiber filters. Radioactivity trapped onto the filters was determined and compared to the control values in order to ascertain any interactions of the test compound(s) with cloned human 5-HT2A receptor binding site.

Data set [3] has as its target cloned human SERT receptor (Homo sapiens, UniProt P31645). Briefly: Determination of Ki at SERT receptor (SPA binding, [3H]-Citalopram). The conditions noted are these: HEK293 recombinant cells, [3H]-Citalopram 2 nM, read-out: Ki hSERT. How it is done:
as §1
• Receptor source: Recombinant mammalian cells (HEK293) • Radioligand: [^3H]-Citalopram (80.8 Ci/mmol) • Final ligand concentration: 2 nM • Non-specific determinant: 0.1 mM Venlafaxine • Reference compound: Venlafaxine • Positive control: Venlafaxine Incubation Conditions:
Reactions were carried out in buffer with pH 7.4 containing 50 mM Tris-HCl, 150 mM NaCl, 5 mM KCl and scintillation proximity assay (SPA) beads (0.1 mg/well) for 3 h at r.t. Radioactivity proximal to SPA beads was determined by scintillation proximity assay and compared to the control values in order to ascertain any interactions of the test compound(s) with cloned human SERT receptor binding site.
Reference: Journal of Pharmacology and Experimental Therapeutics, 1987, 242 (1), 364-371.

The nature of data set [4]: Rodent pharmacokinetic study. The data set is classed as in vivo, Male Wistar rats. The settings on record: rat, plasma, mean ± S.D, n = 3; for bioavailability: oral 3 mg/kg vs intravenous 1 mg/kg, read-out: F (Bioavailability). On the procedure:
Male Wistar rats (260±50 g) were used as experimental animals. Animals were housed individually in polypropylene cage. Two days prior to study, male Wistar rats were anesthetized with isoflurane for surgical placement of jugular vein catheter. Rats were randomly divided for oral (3 mg/kg) and intravenous (1 mg/kg) dosing (n=3/group) and fasted overnight before oral dosing (p.o.). However, food and water were provided ad libitum to the rats allocated for intravenous dosing.
At pre-determined time points, blood samples were collected through jugular vein and replenished with an equivalent volume of normal saline. Collected blood was transferred into a labeled eppendorf tube containing 10 μL of heparin as an anticoagulant. Typically blood samples were collected at 0.08, 0.25, 0.5, 1, 2, 4, 6, 8, and 24 h post dose. Blood samples were centrifuged at 4000 rpm for 10 min. Plasma was separated and stored frozen at −80° C. until analysis. The concentrations of the test compounds were quantified in plasma by qualified LC-MS/MS method using suitable extraction technique. The test compounds were quantified in the calibration range around 1-1000 ng/mL in plasma. Study samples were analyzed using calibration samples in the batch and quality control samples spread across the batch.
Pharmacokinetic parameters Cmax, AUCt, t1/2. Clearance and Bioavailability (F) were calculated using standard non-compartmental model by using Phoenix WinNonlin 6.0.4 version software package.

A short description of data set [5]: Rodent brain penetration study. It is filed as in vivo. The conditions noted are these: rat, brain/plasma, po, fed male Wistar rats, 3 mg/kg p.o., mean ± S.D, n = 3, read-out: Rat Brain Penetration (Cbrain/Cplasma) at 3 mg/kg, p.o. @ 1 h. On the procedure: Male Wistar rats (260±40 g) were used as experimental animals. Three animals were housed in each cage. Animals were given water and food ad libitum throughout the experiment and maintained on a 12 h light/dark cycle.
Brain penetration was determined in discrete manner in rats. One day prior to dosing, male Wistar rats were acclimatized and randomly grouped according to their body weight. At each time point (0.50, 1 and 2 h), n=3 animals were used.
The test compounds were suitably preformulated and administered orally at (free base equivalent) 3 mg/kg. Blood samples were removed via cardiac puncture under isoflurane anesthesia. The animals were sacrificed to collect brain tissue. Plasma was separated and brain samples were homogenized. Plasma and brain homogenates were stored frozen at −20° C. until analysis. The concentrations of the test compounds in plasma and brain were determined using LC-MS/MS method.
The test compounds were quantified in plasma and brain homogenate by qualified LC-MS/MS method using suitable extraction technique in the calibration range of 1-500 ng/mL. Study samples were analyzed using calibration samples in the batch and quality control samples spread across the batch. Extent of brain-plasma ratio (Cbrain/Cplasma) was calculated.

In data set [6] the target is T3, cloned human 5-HT1A receptor (Homo sapiens, UniProt P08908).
T3 construct: expressed in transfected cells; host or cells: HEK293-EBNA
T3 sequence (P08908 1-422): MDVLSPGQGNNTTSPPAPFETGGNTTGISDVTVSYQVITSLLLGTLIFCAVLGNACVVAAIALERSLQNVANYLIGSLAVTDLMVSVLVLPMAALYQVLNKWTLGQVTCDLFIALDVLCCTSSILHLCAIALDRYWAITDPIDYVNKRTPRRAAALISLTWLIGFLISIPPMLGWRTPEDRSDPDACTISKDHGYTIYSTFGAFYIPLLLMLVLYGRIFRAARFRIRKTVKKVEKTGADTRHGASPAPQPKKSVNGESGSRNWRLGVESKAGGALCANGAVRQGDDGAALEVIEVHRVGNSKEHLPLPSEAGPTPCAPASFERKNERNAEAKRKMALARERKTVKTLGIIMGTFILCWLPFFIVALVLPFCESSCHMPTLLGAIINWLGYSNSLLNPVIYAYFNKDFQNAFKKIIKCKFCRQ
The data set is described as follows: Determination of Ki at 5-HT1A receptor (radioligand binding, [3H]-8-Hydroxy DPAT). The conditions noted are these: HEK293-EBNA recombinant cells; [3H]-8-Hydroxy DPAT 0.8 nM; read-out: Ki h5-HT1A. On the procedure:
as §1
• Receptor source: Recombinant mammalian cells (HEK293-EBNA) • Radioligand: [^3H]-8-Hydroxy DPAT (200 Ci/mmol) • Final ligand concentration: 0.8 nM • Non-specific determinant: 0.1 mM U92016A • Reference compound: U92016A • Positive control: U92016A Incubation Conditions:
Reactions were carried out in buffer with pH 7.4 containing 50 mM Tris-HCl, 0.5 mM EDTA, 10 mM MgSO4, 0.1% Ascorbic acid for 2 h at r.t. The reaction was terminated by rapid vacuum filtration onto the glass fiber filters. Radioactivity trapped onto the filters was determined and compared to the control values in order to ascertain any interactions of the test compound(s) with cloned human 5-HT1A receptor binding site.

A further data set concerns dopamine receptor. The data set is described as follows: Reserpine-induced dihydroxyphenylalanine (DOPA) accumulation assay in rat striatum. It is filed as in vivo. The conditions noted are these: apomorphine 0.1 mg/kg, s.c., rat, reserpine 5.0 mg/kg. On the procedure:
Reserpine (5.0 mg/kg, s.c.) was injected, after which rats were fasted for 18 h before sacrifice. […] Each rat was sacrificed and the striatum was dissected out of the whole brain on ice. Each striatum was weighed and homogenized individually in buffer containing 0.01 N hydrochloric acid and 0.2 mg/ml L-cysteine. Supernatants were subjected for quantification of DOPA using HPLC coupled to electrochemical detector.

For data set [7], the target named is T4, recombinant rat 5-HT7 receptor (Rattus norvegicus, UniProt P32305).
T4 construct: expressed in transfected cells
T4 sequence (P32305 whole entry): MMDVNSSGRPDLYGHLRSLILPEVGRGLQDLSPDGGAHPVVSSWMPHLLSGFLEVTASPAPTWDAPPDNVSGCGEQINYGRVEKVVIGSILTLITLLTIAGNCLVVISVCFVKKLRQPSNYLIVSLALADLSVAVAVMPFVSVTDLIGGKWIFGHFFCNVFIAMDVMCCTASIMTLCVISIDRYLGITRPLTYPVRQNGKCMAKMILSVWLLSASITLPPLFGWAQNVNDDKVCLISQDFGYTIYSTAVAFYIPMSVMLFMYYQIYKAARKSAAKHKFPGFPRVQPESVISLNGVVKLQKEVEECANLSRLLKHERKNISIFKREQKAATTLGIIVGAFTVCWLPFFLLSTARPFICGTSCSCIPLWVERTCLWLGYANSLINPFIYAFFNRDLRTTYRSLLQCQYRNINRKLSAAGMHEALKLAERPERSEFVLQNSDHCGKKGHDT
Briefly: Determination of Kb at 5-HT7 receptor, pCRE-Luc reporter gene assay in CHO cells. The data set is classed as cell-based. On the procedure: A stable CHO cell line expressing recombinant rat 5-HT7 receptor and pCRE-Luc reporter system was used for cell-based assay. The assay offers a non-radioactive based approach to determine binding of a compound to GPCRs. In this specific assay, the level of intracellular cAMP which is modulated by activation or inhibition of the receptor is measured. The recombinant cells harbor luciferase reporter gene under the control of cAMP response element.
The above cells were grown in 96 well clear bottom white plates in Hams F12 medium containing 10% fetal bovine serum (FBS). Prior to the addition of compounds or standard agonist, cells were serum starved overnight. Increasing concentrations of test compound were added along with 1 μM of serotonin in Opti-MEM medium to the cells. The incubation was continued at 37° C. in CO2 incubator for 4 hours. Medium was removed and cells were washed with phosphate buffered saline. The cells were lysed and luciferase activity was measured in a Luminometer. Luminescence units were plotted against the compound concentrations using GraphPad Prism software. EC50 values of the compounds were defined as the concentration required in reducing the luciferase activity by 50%. The Kb values were calculated by feeding the concentration of agonist used in the assay and its EC50 value in the same software.
(Reporter assays use an easily measured gene product as a stand-in for the process of interest.)

The target in data set [8] is T4, recombinant rat 5-HT7 receptor. Described as above. It is filed as cell-based. The source holds these as a separate data set.
[9] abbreviates: intravenous (bolus) 1 mg/kg, male Wistar rats.
[10] abbreviates: oral (gavage) 3 mg/kg, fasted male Wistar rats.

cloned human SERT receptor, sequence (P31645 whole entry): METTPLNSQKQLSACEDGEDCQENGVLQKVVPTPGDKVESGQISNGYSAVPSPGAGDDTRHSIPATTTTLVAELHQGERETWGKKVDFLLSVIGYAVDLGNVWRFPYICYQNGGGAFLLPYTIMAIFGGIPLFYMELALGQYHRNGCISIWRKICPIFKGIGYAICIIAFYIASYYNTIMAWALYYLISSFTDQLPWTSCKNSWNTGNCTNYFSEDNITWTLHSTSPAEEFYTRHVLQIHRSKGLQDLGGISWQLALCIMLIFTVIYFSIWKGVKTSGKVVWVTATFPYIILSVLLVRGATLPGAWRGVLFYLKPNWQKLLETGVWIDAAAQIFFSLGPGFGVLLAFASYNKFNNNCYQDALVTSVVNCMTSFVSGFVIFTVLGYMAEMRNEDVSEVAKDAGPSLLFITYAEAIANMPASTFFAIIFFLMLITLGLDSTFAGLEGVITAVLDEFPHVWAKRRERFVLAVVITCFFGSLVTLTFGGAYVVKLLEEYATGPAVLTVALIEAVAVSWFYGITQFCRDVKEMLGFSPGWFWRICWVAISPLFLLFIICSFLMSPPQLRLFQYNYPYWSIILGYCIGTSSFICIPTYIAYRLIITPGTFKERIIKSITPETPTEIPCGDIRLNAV

On to `O=C1C[C@@H]2CCCN2C(=O)N1CCCCN1CCC(c2noc3cc(F)ccc23)CC1` [Example 5, 2-{4-[4-(6-Fluoro-benzo[d]isoxazol-3-yl)-piperidin-1-yl]-butyl}-tetrahydro-pyrrolo[1,2-c]pyrimidine-1,3-dione], for which the Ki in [1] is 7.3 nM; in data set [2], 0.7 nM; in data set [3] (cells printed in μM) it was more than 10 µM; in [6], 14.7 nM. Further, the AUC(0-t) stood at 226 ± 11 ng·h/mL in [4] (setting [9]) and 151 ± 61 ng·h/mL in [4] (setting [10]). Further, the clearance in data set [4] (setting [9]) turned out to be 74 ± 3.4 mL/min/kg. For the same molecule, the half-life in [4] (setting [9]) was 30 ± 6 min; in data set [4] (setting [10]), 42 ± 6 min. Also, the bioavailability in data set [4] (male Wistar rats) came out at 22 ± 9%. The molecule further showed a Cmax in data set [4] (setting [10]) of 152 ± 44 ng/mL. The Kp at 1 h in [5] was found to be 1.06 ± 0.46.

`CN1CCc2cccc3c2[C@H]1Cc1ccc(O)c(O)c1-3` [apomorphine, reference compound]: the “change in reserpine-induced DOPA accumulation in striatum” value in the data set on dopamine receptor is given as “significant decrease”.

With `O=C1C[C@@H]2COCCN2C(=O)N1CCCCN1CCN(c2nsc3ccccc23)CC1` [Example 18, 7-[4-(4-Benzo[d]isothiazol-3-yl-piperazin-1-yl)-butyl]-tetrahydro-pyrimido[6,1-c][1,4]oxazine-6,8-dione oxalate], the Ki in data set [1] turned out to be 6.5 nM; in [2] it was 4.2 nM; in data set [3], 1.74 µM; in data set [6], 0.8 nM. Also, in data set [7] (pCRE-Luc reporter gene assay), the “antagonistic activity at rat recombinant 5-HT7 receptor” value was “antagonistic activity”. Also, in data set [7] (rat receptor, with 1 μM serotonin, luciferase readout, read-out: Kb at 5-HT7 receptor), the Kb is 1 nM. Besides, the “agonist activity at rat recombinant 5-HT7 receptor” value in data set [8] is given as “no detectable agonist activity”.

With `O=C1C[C@H]2CCCN2C(=O)N1C[C@H]1CCCC[C@H]1CN1CCC(c2noc3cc(F)ccc23)CC1` [Example 29, 2-{2-[4-(6-Fluoro-benzo[d]isoxazol-3-yl)-piperidin-1-ylmethyl]-cyclohexylmethyl}-tetrahydro-pyrrolo[1,2-c]pyrimidine-1,3-dione oxalate], the Ki in data set [1] is 0.2 nM; in data set [2], 0.8 nM; in [3] (cells printed in μM), more than 10 µM; in [6], 10 nM. Moreover, the AUC(0-t) in data set [4] (setting [9]) amounted to 291 ± 17 ng·h/mL; in data set [4] (setting [10]) it was 40 ± 15 ng·h/mL. This molecule also displayed a clearance in [4] (setting [9]) of 57 ± 3 mL/min/kg. Moreover, the half-life was 60 ± 6 min in data set [4] (setting [9]) and 54 ± 6 min in data set [4] (setting [10]). In addition, the bioavailability in data set [4] (male Wistar rats) was 4.6 ± 2%. Further, in [4] (setting [10]), the highest level (Cmax) was 37 ± 14 ng/mL. In [5], the Kp at 1 h amounted to 2.73 ± 0.23.

By Ki is commonly meant the dissociation constant of the complex between target and ligand, obtained from inhibition or displacement. By AUC(0-t) is commonly meant the area under the concentration-time curve up to a stated or last time point. A higher AUC(0-t) goes with more exposure. As usually defined, the clearance is a measure of how efficiently the substance is removed, as volume per time. Usually half-life stands for the time in which the quantity being followed falls by half. High values mean slow decline, low ones rapid decline. A word on the bioavailability: it is dose-corrected exposure relative to a reference, in per cent. By Cmax is commonly meant the maximum level reached in the sampled fluid or tissue.
